IC50 data for one molecule are collected here from ChEMBL document CHEMBL4376902, “CN128: A New Orally Active Hydroxypyridinone Iron Chelator” (J Med Chem, 2020).

This assay concerns the target T1, Cytochrome P450 2B6 (Homo sapiens, UniProt P20813).
T1 sequence (P20813 whole entry): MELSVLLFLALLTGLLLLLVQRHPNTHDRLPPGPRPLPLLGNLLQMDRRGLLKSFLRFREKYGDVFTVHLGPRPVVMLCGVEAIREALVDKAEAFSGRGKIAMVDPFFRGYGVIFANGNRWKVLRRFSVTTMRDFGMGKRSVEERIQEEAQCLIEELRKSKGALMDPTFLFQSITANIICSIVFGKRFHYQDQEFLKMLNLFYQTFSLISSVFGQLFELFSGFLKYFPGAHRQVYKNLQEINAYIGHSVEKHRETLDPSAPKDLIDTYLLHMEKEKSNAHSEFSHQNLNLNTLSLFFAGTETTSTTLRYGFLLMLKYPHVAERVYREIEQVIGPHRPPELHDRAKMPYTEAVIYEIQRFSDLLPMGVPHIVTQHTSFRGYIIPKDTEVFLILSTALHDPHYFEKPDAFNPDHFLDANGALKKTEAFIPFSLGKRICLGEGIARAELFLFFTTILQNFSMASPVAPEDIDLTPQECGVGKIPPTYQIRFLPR
The assay can be described thus: Inhibition of CYP2B6 in human liver microsomes. The assay is classed as ADME.

On to `Cc1c(O)c(O)cc[n+]1[C@@H](CO)Cc1ccccc1.[Cl-]`, for which the concentration for half-maximal inhibition (IC50) is above 200 µM.
